Test results taken from patent publication US20260097139A1, “GONADOTROPIN-RELEASING HORMONE RECEPTOR (GnRHR) TARGETED THERAPEUTICS AND USES THEREOF” (Radionetics Oncology, Inc., priority 2022, published 2026).

These compounds were tested against T1, human GnRH receptor (Homo sapiens, UniProt P30968) (assay: IP-One functional assay for GnRHR (reported as hGnRHR Binding Ki)). Settings: incubation time 60 min; FlpIn T-Rex 293 cells expressing human GnRH receptor; read-out: hGnRHR Binding Ki 60 min.
T1 construct: expressed in transfected cells
T1 sequence (P30968 1-328): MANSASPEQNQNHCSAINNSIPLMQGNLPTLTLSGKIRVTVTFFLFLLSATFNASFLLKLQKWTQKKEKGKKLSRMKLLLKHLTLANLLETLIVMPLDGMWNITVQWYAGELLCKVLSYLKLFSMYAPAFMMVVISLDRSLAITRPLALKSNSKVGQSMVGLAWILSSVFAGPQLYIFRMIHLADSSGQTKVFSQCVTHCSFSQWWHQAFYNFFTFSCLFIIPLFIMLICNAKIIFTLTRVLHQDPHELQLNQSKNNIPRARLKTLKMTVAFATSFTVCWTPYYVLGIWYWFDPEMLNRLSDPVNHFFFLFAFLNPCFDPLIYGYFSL
Type: cell-based
Source text: General overview: GnRHR is a Gq/11-coupled receptor that mediates the action of the GnRH hormone by activating the phosphatidylinositol-calcium second messenger system. Activation of the GnRHR induces the accumulation of inositol monophosphate, a stable metabolite of IP-3, that can be characterized as a measure of agonistic activity (increase in IP-One) or antagonistic activity (blockade of IP-One accumulation) by compounds of the invention. One example of an intracellular IP-One assay used to characterize GnRHR antagonists is described below.
24 hours prior to the assay, 30,000 FlpIn T-Rex 293 Cells (ThermoFisher #R78007) stably expressing the functional human GnRH receptor upon induction with tetracycline were plated in a 96-well tissue culture-treated plate in FlpIn T-Rex 293 Growth Medium [DMEM (Corning #10-013-CM) supplemented with 10% fetal bovine serum (Gemini Bio-Products #900-208), 100 U/mL penicillin; 100 μg/mL streptomycin; 2 mM L-glutamine (Gemini Bio-Products #400-110)] and 50 ng/mL tetracycline hydrocholoride (Sigma, T7660). Cells were cultured at 37° C., 5% CO2 and 95% humidity. On the day of the assay, the growth media was discarded and the cells were treated with 50 μL of a dose response curve of GnRH (Bachem #4033013) in the presence of various concentrations of fixed compound in assay buffer [10 mM HEPES (Biopioneer Cat #C0113) pH 7.4, 1 mM CaCl2) (Fisher Scientific BP510-100), 0.5 mM MgCl2 (Sigma M8266-100G), 4.2 mM KCl (Fisher Scientific P330-500), 146 mM NaCl (Spectrum Chemical #SO155), 5.5 mM Glucose (Sigma G7528), 50 mM LiCl (Fisher Scientific L121-100), 0.1% bovine serum albumin (Fisher Scientific Cat #BP1600)] and incubated for 1 hour at 37° C. (the final concentrations of GnRH ranged from 0-250 nM and the final concentrations of the compound ranged from 0-10,000 nM). 50 μL of lysis buffer (HRTF IP-one kit, Cisbio) was added on top of the treatment to lyse the cells. The lysate was transferred to 384-well plates and IP-one detection and visualization antibodies were added and incubated for 1-24 hours at room temperature. The time-resolved fluorescent signal was read with a Tecan M1000Pro (Tecan) multiplate reader. The intracellular IP-one concentrations were calculated by regression to a standard curve and were plotted vs. the concentration of the GnRH agonists in the presence of various concentrations of antagonist and the Ks of the compounds were calculated using standard curve-fitting methods. All data manipulations were performed using GraphPad Prism v8 (GraphPad, San Diego, CA).
For some analogs, the incubation time was 2 h or 4 h, as noted in Table A.

Ki, < 10 nM:
CN(C(=O)c1ccc(Cl)c(-c2cnc(C(F)(F)F)cc2C#N)c1)c1ccccc1OCCC(=O)NCCOCCOCCOCCOCCOCCOCCOCCOCCNC(=O)CN1CCN(CC(=O)O)CCN(CC(=O)O)CCN(CC(=O)O)CC1 [Compound 2, 2,2′,2″-(10-(33-(2-(4-chloro-3-(4-cyano-6-(trifluoromethyl)pyridin-3-yl)-N-methylbenzamido)phenoxy)-2,31-dioxo-6,9,12,15,18,21,24,27-octaoxa-3,30-diazatritriacontyl)-1,4,7,10-tetraazacyclododecane-1,4,7-triyl)triacetic acid]
CN(C(=O)c1ccc(Cl)c(-c2cnc(C(F)(F)F)cc2C#N)c1)c1ccccc1OCCOCCOCCOCCOCCOCCOCCOCCOCCNC(=O)CN1CCN(CC(=O)O)CCN(CC(=O)O)CCN(CC(=O)O)CC1 [Compound 3M-In, indium(III) 2,2′,2″-(10-(29-(2-(4-chloro-3-(4-cyano-6-(trifluoromethyl)pyridin-3-yl)-N-methylbenzamido)phenoxy)-2-oxo-6,9,12,15,18,21,24,27-octaoxa-3-azanonacosyl)-1,4,7,10-tetraazacyclododecane-1,4,7-triyl)triacetate]
Cc1cccc(OCCC(=O)NCCOCCOCCOCCOCCOCCOCCOCCOCCNC(=O)CN2CCN(CC(=O)O)CCN(CC(=O)O)CCN(CC(=O)O)CC2)c1N(C)C(=O)c1ccc(Cl)c(-c2cnc(C(F)(F)F)cc2C#N)c1 [Compound 8, 2,2′,2″-(10-(33-(2-(4-chloro-3-(4-cyano-6-(trifluoromethyl)pyridin-3-yl)-N-methylbenzamido)-3-methylphenoxy)-2,31-dioxo-6,9,12,15,18,21,24,27-octaoxa-3,30-diazatritriacontyl)-1,4,7,10-tetraazacyclododecane-1,4,7-triyl)triacetic acid]
COc1ccccc1N(C)C(=O)c1cc(-c2cnc(C(F)(F)F)cc2C#N)c(Cl)cc1OCCCC(=O)NCCOCCOCCOCCOCCOCCOCCOCCOCCNC(=O)CN1CCN(CC(=O)O)CCN(CC(=O)O)CCN(CC(=O)O)CC1 [Compound 6M-In, indium(III) 2,2′,2″-(10-(34-(5-chloro-4-(4-cyano-6-(trifluoromethyl)pyridin-3-yl)-2-((2-methoxyphenyl)(methyl)carbamoyl)phenoxy)-2,31-dioxo-6,9,12,15,18,21,24,27-octaoxa-3,30-diazatetratriacontyl)-1,4,7,10-tetraazacyclododecane-1,4,7-triyl)triacetate]
COc1ccccc1N(C)C(=O)c1cc(-c2cnc(C(F)(F)F)cc2C#N)c(Cl)cc1OCCOCCOCCOCCOCCOCCOCCOCCOCCNC(=O)CN1CCN(CC(=O)O)CCN(CC(=O)O)CCN(CC(=O)O)CC1 [Compound 5M-In, indium(III) 2,2′,2″-(10-(29-(5-chloro-4-(4-cyano-6-(trifluoromethyl)pyridin-3-yl)-2-((2-methoxyphenyl) (methyl)carbamoyl)phenoxy)-2-oxo-6,9,12,15,18,21,24,27-octaoxa-3-azanonacosyl)-1,4,7,10-tetraazacyclododecane-1,4,7-triyl)triacetate]

Same assay, conditions: incubation time 2 h; FlpIn T-Rex 293 cells expressing human GnRH receptor; read-out: hGnRHR Binding Ki 2 h

Ki, < 10 nM:
COc1nc(OCCOCCOCCOCCOCCOCCOCCOCCOCCNC(=O)CN2CCN(CC(=O)O)CCN(CC(=O)O)CCN(CC(=O)O)CC2)nc(OC)c1NC(=O)c1ccc(Oc2cc3c(cc2C)CCC3(C)C)o1 [Compound 4, 2,2′,2″-(10-(29-((4,6-dimethoxy-5-(5-((3,3,6-trimethyl-2,3-dihydro-1H-inden-5-yl)oxy)furan-2-carboxamido)pyrimidin-2-yl)oxy)-2-oxo-6,9,12,15,18,21,24,27-octaoxa-3-azanonacosyl)-1,4,7,10-tetraazacyclododecane-1,4,7-triyl)triacetic acid]
COc1nc(SCCC(=O)NCCN(C)CCNC(=O)CN2CCN(CC(=O)O)CCN(CC(=O)O)CCN(CC(=O)O)CC2)nc(OC)c1NC(=O)c1ccc(Oc2cc3c(cc2C)CCC3(C)C)o1 [Compound 17, 2,2′,2″-(10-(2-((2-((2-(3-((4,6-dimethoxy-5-(5-((3,3,6-trimethyl-2,3-dihydro-1H-inden-5-yl)oxy)furan-2-carboxamido)pyrimidin-2-yl)thio)propanamido)ethyl)(methyl)amino)ethyl)amino)-2-oxoethyl)-1,4,7,10-tetraazacyclododecane-1,4,7-triyl)triacetic acid]
CC1(C)CCN(S(=O)(=O)c2cc(-c3cnc(C(F)(F)F)cc3C#N)c(Cl)cc2OCCOCCOCCOCCOCCOCCOCCOCCOCCNC(=O)CN2CCN(CC(=O)O)CCN(CC(=O)O)CCN(CC(=O)O)CC2)c2ccccc21 [Compound 7, 2,2′,2″-(10-(29-(5-chloro-4-(4-cyano-6-(trifluoromethyl)pyridin-3-yl)-2-((4,4-dimethyl-3,4-dihydroquinolin-1(2H)-yl)sulfonyl)phenoxy)-2-oxo-6,9,12,15,18,21,24,27-octaoxa-3-azanonacosyl)-1,4,7,10-tetraazacyclododecane-1,4,7-triyl)triacetic acid]
COc1nc(SCCC(=O)NCCC[C@@H](NC(=O)CN2CCN(CC(=O)O)CCN(CC(=O)O)CCN(CC(=O)O)CC2)C(=O)O)nc(OC)c1NC(=O)c1ccc(Oc2cc3c(cc2C)CCC3(C)C)o1 [Compound 16, (R)-2,2′,2″-(10-(2-((1-carboxy-4-(3-((4,6-dimethoxy-5-(5-((3,3,6-trimethyl-2,3-dihydro-1H-inden-5-yl)oxy)furan-2-carboxamido)pyrimidin-2-yl)thio)propanamido)butyl)amino)-2-oxoethyl)-1,4,7,10-tetraazacyclododecane-1,4,7-triyl)triacetic acid]
COc1nc(SCCC(=O)NCCN(C)CCNC(=O)[C@H](N)CCCNC(=O)CN2CCN(CC(=O)O)CCN(CC(=O)O)CCN(CC(=O)O)CC2)nc(OC)c1NC(=O)c1ccc(Oc2cc3c(cc2C)CCC3(C)C)o1 [Compound 19, (R)-2,2′,2″-(10-(7-amino-18-((4,6-dimethoxy-5-(5-((3,3,6-trimethyl-2,3-dihydro-1H-inden-5-yl)oxy)furan-2-carboxamido)pyrimidin-2-yl)thio)-12-methyl-2,8,16-trioxo-3,9,12,15-tetraazaoctadecyl)-1,4,7,10-tetraazacyclododecane-1,4,7-triyl)triacetic acid]
